Experimental findings from US11266170B2, “Sweetener and flavor compositions, methods of making and methods of use thereof” (EPC Natural Products Co., Ltd., priority 2018, dated 2022) are described below.

For one data set, the system named is panel of four people. As to the kind of experiment: Sensory test of Maillard reaction series in glycerol, buffer or dry conditions (Examples 50, 52). The class given is in vivo. More on the design: key to Intensity of Smell: “+” for slight; “++” for moderate; “+++” for very strong. The method, then: The reaction partner (amino acid, carbohydrate source) were dissolved/suspended in the reaction solvent and transferred into a glass beaker filled with sand pre-heated for at least 30 minutes at the reaction temperature in a drying oven. After the planned reaction time, the vials were transferred into ice water. After cooling to room temperature, sensory analysis and analytical characterization was performed.
All tests were performed with negative controls (only reaction solvent, reaction solvent and amino acid, reaction solvent and carbohydrate).
Another series of experiments was performed in […] filled with 10 ml of reaction solvent. The reaction partner (amino acid, carbohydrate source) were dissolved/suspended in the reaction solvent and reflux heated for the time given on heating plates. After the planned reaction time, the flasks were transferred into ice water. After cooling to room temperature, sensory analysis and analytical characterization was performed.
Another series of experiments was performed in 20 ml sealed Pyrex vials. The reaction partner (amino acid, carbohydrate source) were finely grinded and mixed, then transferred in the Pyrex vial. A small volume of water was added and the reaction initiated in a drying oven. After the planned reaction time, the vials were transferred into ice water. After cooling to room temperature, sensory analysis and analytical characterization was performed.
For evaluation of the taste profile, the samples were tested by a panel of four people. 1 trained taster tasted independently the samples first. The taster was asked to describe the taste profile and score 0-5 according to the increasing sugar likeness, bitterness, aftertaste and lingering taste profiles. The first taster was allowed to re-taste, and then make notes for the sensory attributes perceived. Afterwards, another 3 tasters tasted and the attributes were noted and discussed openly to find a suitable description. In case that more than 1 taster disagreed with the results, the tasting was repeated. In some sensory test results (above), the taste rating was expressed by “+”, which means the intensity of the factors is shown by three levels. “+” for slight, “++” for moderate and “+++” for very strong.

Data set [1] can be described thus: Sensory evaluation of GSGs and SGs, thaumatin, NHDC and combinations in water (Example 255). The following applies: combinations of EPCalin and NHDC in water, concentrations as in the sample name. As for the experimental part:
4.5 ppm Thaumatin (equivalent to 10 ppm EPCalin) was dissolved in water. Increasing amounts of NHDC (1-5 ppm) were added to the solution and the sensory properties were evaluated.
50 ppm (GSGs and SGs) were dissolved in water. Increasing amounts of NHDC (1-5 ppm) were added to the solution and the sensory properties were evaluated.
50 ppm (GSGs and SGs) and 4.5 ppm Thaumatin (equivalent to 10 ppm EPCalin) were dissolved in water. Increasing amounts of NHDC (1-5 ppm) were added to the solution and the sensory properties were evaluated.

Data set [2] in a line: Assay to test reducing power (iron-III reduction), Example 64. The class given is biochemical. The following applies: 100° C., 0-5.0 h, pH 7.8; compared with glucose or xylose.
Data set [3] in a line: Assay to test DPPH radical-scavenging activity, Example 65. It is filed as biochemical. To be noted: 100° C., 0-5.0 h, pH 7.8; compared with glucose or xylose. The method, then: 1 mg 1,1-Diphenyl-2-picrylhydrazyl radical (DPPH)/ml ethanol, dilution to assay concentration were prepared in ethanol (40 μg/mL); Calibration samples were prepared with Ascorbic acid in a concentration of 0-10 μg/mL; as a negative control sample, water was used.
Samples in aqueous solution were used as such or diluted with water.
A 0.1 ml sample (or calibration standard) was mixed with 3.9 ml solution of DPPH (100 μMolar) and reacted while protected from light at room temperature for 30 min. Absorbance was determined at 517 nm against ethanol.
10 mM of amino acid and/or 10 mM sugar were dissolved in 10 ml 0.1 mM KH2PO4-buffer, pH=7.8.
The samples were kept at 100° C. in sealed glass vials (Pyrex 15 ml with screw caps) for 0 (before reaction), 2.5 or 5.0 hours. Thereafter the samples were transferred to an ice water bath and cooled down to room temperature. These samples were diluted 1:10 and used for the test assay for anti-oxidant potential.
A general note: DPPH is a stable violet radical that fades when it is reduced.

Data set [4] can be described thus: Kinetics of reaction of Phe with Reb-A, Gluc, Xyl, Suc in dependence of pH-conditions, HPLC/MS (Example 55). The class given is physicochemical. The following applies: reaction of Phe and Reb-A. As for the experimental part:
Quantitative evaluation was performed using external standardization.
Kinetics of Reaction in dependence of pH-conditions

The mark [5] stands for this setting: Table 52.6, Glycerin, 10 ml, 100° C., 40 min (Table 50.6).
Setting [6] is: Table 52.7, Glycerin, 10 ml, 1 h, 120° C. (Table 50.7).
Setting [7] is: Table 52.2, 1 ml water + 9 ml Glycerin, 0.67 h, 100° C. (Table 50.2).
[8] abbreviates: Table 52.1, 1 ml water + 9 ml Glycerin, 1 h, 100° C. (Table 50.1).
[9] abbreviates: Table 52.5, 1 ml water + 9 ml Glycerin, 2.0 h, 120° C. (Table 50.5).
Where [10] appears, read: Table 52.3, 1 ml water + 9 ml Glycerin, 0.67 h, 100° C. (Table 50.3).

For the compound `N[C@@H](Cc1ccccc1)C(=O)O` [3.3 mMol Phe], the Smell entry with panel of four people (Table 52.6, Glycerin, 10 ml, 100° C., 5 min (Table 50.6)) is given as “Slightly bloomy”; with panel of four people (Table 52.6, Glycerin, 10 ml, 100° C., 10 min (Table 50.6)) it was “flowery/bloomy”; in the data set on panel of four people (Table 52.6, Glycerin, 10 ml, 100° C., 20 min (Table 50.6)), “flowery/bloomy”; in the data set with panel of four people (setting [5]), “flowery/bloomy”; with panel of four people (setting [6]), “flowery/bloomy”.
On to `C=C1C[C@@]23CC[C@H]4[C@@](C)(CCC[C@@]4(C)C(=O)O[C@@H]4O[C@H](CO)[C@@H](O)[C@H](O)[C@H]4O)[C@@H]2CC[C@]1(O[C@@H]1O[C@H](CO)[C@@H](O)[C@H](O[C@@H]2O[C@H](CO)[C@@H](O)[C@H](O)[C@H]2O)[C@H]1O[C@@H]1O[C@H](CO)[C@@H](O)[C@H](O)[C@H]1O)C3` [0.05 mMol Reb-A], for which, in the data set on panel of four people (setting [7]), the Smell entry was “neutral/unpleasant” and the Taste entry is on record as “sweet”.
Consider `N[C@@H](CCC(=O)O)C(=O)O` [167 mMol Glu], for which, in the data set with panel of four people (setting [8]), the Smell result was “caramel” and the Taste result is “Sweet”.
Take `OC[C@H]1OC(O)[C@H](O)[C@@H](O)[C@@H]1O` (stereo partly shown) [10 mMol Glu]: the Smell entry with panel of four people (setting [5]) and in the data set with panel of four people (setting [6]) was “Slightly Caramel” throughout.
Regarding `N[C@@H](Cc1ccccc1)C(=O)O` [Phe 60 mMol], in the data set on panel of four people (setting [8]), the Smell entry is listed as “flowery/bloomy-caramel” and the Taste entry is “Sweet”.
Take `COc1ccc(CCC(=O)c2c(O)cc(O[C@@H]3O[C@H](CO)[C@@H](O)[C@H](O)[C@H]3O[C@@H]3O[C@@H](C)[C@H](O)[C@@H](O)[C@H]3O)cc2O)cc1O` [10 ppm NHDC]: the Sensory evaluation result in data set [1] was “Sweet, steep onset of sweetness, no lingering”.
Consider `O=C[C@H](O)[C@H]1OC(=O)[C@@H](O)[C@H]1O` [0.1 mMol GlucLac], for which, in the data set with panel of four people (setting [9]), the “Intensity of Smell” value is “+++”, the Smell entry is “Burnt sugar” and the Taste entry was “Bitter”.
Take `N[C@@H](Cc1ccccc1)C(=O)O` [0.1 mMol Phe]: the Taste entry in the data set on panel of four people (setting [7]) is listed as “sweet”. In the data set on panel of four people (setting [9]), the “Intensity of Smell” value was “+”; the Smell entry is listed as “Caramel, burnt”; the Taste result is “sweet”.
In the case of `C=C1C[C@@]23CC[C@H]4[C@@](C)(CCC[C@@]4(C)C(=O)O[C@@H]4O[C@H](CO)[C@@H](O)[C@H](O)[C@H]4O)[C@@H]2CC[C@]1(O[C@@H]1O[C@H](CO)[C@@H](O)[C@H](O[C@@H]2O[C@H](CO)[C@@H](O)[C@H](O)[C@H]2O)[C@H]1O[C@@H]1O[C@H](CO)[C@@H](O)[C@H](O)[C@H]1O)C3` [Reb-A, Rebaudioside A, reference compound], in data set [2], the “active iron-III reduction (anti-oxidant properties)” value is “substantial anti-oxidant properties”. The “radical scavenging properties (anti-oxidant properties)” value in data set [3] is “substantial anti-oxidant properties”. Besides, the entries for the “% degradation” value in data set [4] (pH = 5.5), in data set [4] (pH = 7.0) and in data set [4] (pH = 8.5) were 8.25%, 10.1% and 12.6%, respectively.
Consider `NCCCC[C@H](N)C(=O)O` [0.1 mMol Lys], for which, in the data set on panel of four people (setting [10]), the Smell result was “Popcorn” and the Taste entry was “Sweet”.
